Source: patent US10865176B2, “Small molecule modulators of microRNA-34a” (The Chinese University of Hong Kong, priority 2012, dated 2020)
Marks after values point to notes of the source that are not given here.

What was measured:
miR-34a [1] = test: miR-34a reporter luciferase assay in Huh7 cells; assay type: cell-based, human
Description: The pMIR-REPORT™ luciferase plasmid (1 μg; Ambion) was sequentially double digested with Sac I and Hind III (10 units each, 50 μL reaction; NEB) and was gel purified. Double stranded insert DNA encoding the miR-34a binding site was synthesized through standard oligonucleotide synthesis methods. The sequences used were Forward: 5′z […]-3′ (SEQ ID NO:1) and Reverse: 5′: […]-3′ (SEQ ID NO:2). The insert was hybridized (heated to 95° C., and cooled to 4° C. over 30 min, then held at 4° C. for 60 min) and ligated with T4 ligase (200 units, 10 μL reaction, 1:10 vector/insert ratio; NEB) into the digested pMIR-REPORT™ luciferase vector. Positive colonies were selected by PCR colony screens, and the construction of the pMIR-REPORT™-miR-34a vector was confirmed by double enzyme digestion with NheI, MluI and Nhe I, Hind III (NEB). The luciferase reporter vector containing the miR-34a promoter was kindly provided by Prof. Mendell J T from Johns Hopkins University (21).
Huh7 cells were seeded into 96-well plates 12 h prior to transfection. MiR-34a reporter and the control vector were respectively co-transfected with Renilla luciferase pRL-SV40 into Huh7 cells. All transfections were performed in triplicate. The cells were incubated at 37° C. for 4 h followed by the replacement of transfection media with standard DMEM growth media with 10 μM of the natural products library (NPL) compounds (Tim Tec; 0.1% DMSO final concentration). This library contains 640 compounds including natural products and their derivatives. After 48 h of incubation, the media was removed and cells were lysed and the luciferase signals were measured by luciferase assay as described below.
MiR-34a reporter, the luciferase reporter vector containing miR-34a promoter and the control vectors were transfected into HCC cells 12 h before compound treatment. The Renilla luciferase vector pRL-SV40 was co-transfected as an internal control. HCC cells were then treated with compound for 48-72 h. The luciferase activity was measured by Dual Luciferase Reporter Assay (Promega) with a Wallac VICTOR^3V luminometer. The ratio of firefly luciferase to Renilla expression was calculated for each of the triplicates.

[2] = system: miR-7a, miR-21, miR-23a, miR-29c, miR-34c, miR-219, miR-145, miR-192, miR-215; test: qRT-PCR of a panel of other miRNAs in Huh7 cells; assay type: cell-based, human; conditions: 10 μM, 48 h
Description: (§1) Total RNA from cell cultures and HCC xenograft tumors were extracted using Trizol (Invitrogen) according to manufacturer's protocols. Total RNAs were dissolved into nuclease-free ddH2O. For protein extraction, cells and HCC xenograft tumors were lysed in 1×RIPA buffer with 1 mM PMSF and 1× complete protease inhibitor cocktail (Roche, Indianapolis, Ind.). Both RNA and protein were stored at −80° C.
(§2) Total RNA was reversely transcribed into cDNAs using High Capacity cDNA Reverse Transcription Kit (Applied Biosystems, Foster city, CA, USA) and nude RT kit (Invitrogen) individually. qRT-PCR was performed using SYBR Green PCR master mix (TaKaRa, Dalian, China). GAPDH was used as an endogenous control. For measuring miR-34a expression level, qPCR was performed by using SYBR Green PCR master mixture (Invitrogen) and U6 was used as the internal control. All samples were normalized to internal controls and fold changes were calculated by relative quantification (2^−ΔΔct).

Cyclin D1 and Bcl-2 [3] = test: Expression of miR-34a targets Cyclin D1 and Bcl-2 (qRT-PCR, western blotting) in HCC cells; assay type: cell-based, human; conditions: 10 μM, 48 h (RNA) or 72 h (protein)
Description: as §1, §2
Protein quantification was performed using BCA protein assay kit (Thermo Fisher Scientific, Rockford, Ill., USA). 25-50 μg protein was separated by SDS-PAGE (sodium dodecyl sulfate-polyacrylamide gel electrophoresis) and transferred to PVDF membranes (Bio-Rad). […] Protein expression was detected by autoradiography using Amersham ECL Plus™ Western Blotting Detection Reagents (GE Healthcare, Uppsala, Sweden).

[4] = system: CDK6, FOXP, Notch1 and Sirtuin; test: Expression of other miR-34a targets by qRT-PCR in HCC cells; assay type: cell-based, human; conditions: 10 μM, 48 h
Description: as §1, §2

PLC cells = test: MTT cell viability assay, PLC/PRF/5; assay type: cell-based, human
Description: (§3) Cell viability was measured by 3-(4,5-Dimethylthiazol-2-yl)-2,5-diphenyltetrazolium bromide (MTT) assay. 1×10^3 Cells were seeded in triplicate on a 96 well plate and were allowed to grow for indicated time points. At each time point a set of cells were incubated with 0.5 mg/ml MTT diluted in 1×PBS. After 2 to 4 h incubation, the MTT solution was removed. The insoluble MTT was dissolved in DMSO. Absorbance at 570 nm was measured by an ELISA plate reader.

Hep3B cells = test: MTT cell viability assay, Hep3B; assay type: cell-based, human; conditions: different concentrations and time points
Description: as §3

HCC cells = test: MTT cell viability assay, HCC cell lines; assay type: cell-based, human; conditions: 5 μM
Description: as §3

HepG2 xenografted tumor = test: HepG2 xenografted nude mice model, tumor growth; assay type: in vivo; conditions: for Tumor growth inhibition (%) / Tumor weight (g): gavage once every two days; for Tumor growth inhibition (%): 24 d; for Tumor weight (g): day 24, mean (95% CI)
Description: (§4) Tumor volume was calculated as [(Length×Width×Height)[…]]. Treatment was continued for 24 d. Finally, all mice were sacrificed and tumors were excised. Tumor weight was recorded.

miR-34a [5] = test: qRT-PCR of pri-miR-34a and miR-34a in xenografted tumors; assay type: in vivo, nude mice; conditions: excised tumors after 24 d gavage
Description: as §1, §2, §4

Cyclin D1 and Bcl-2 [6] = test: qRT-PCR of Cyclin D1 and Bcl-2 in xenografted tumors; assay type: in vivo, nude mice; conditions: excised tumors after 24 d gavage
Description: as §1, §2, §4

HepG2 xenografted tumors = test: CD31 immunohistochemical staining of HepG2 xenografted tumors (microvessel density); assay type: in vivo, nude mice; conditions: Rubone treated tumors; control group 67.50; p=0.0098
Description: Immunohistochemical staining was performed on HepG2 xenografted tumor tissues with CD31 specific antibody (Cat #: Y059114, Abcam, Cambridge, Mass.). Subcutaneous tumor tissue sections were incubated with anti-CD31 overnight at 4° C. Mean microvessel density was calculated by averaging vessel counts from three random fields per slide.

COc1cc(O)c(C(=O)/C=C/c2cc(OC)c(OC)cc2OC)c(OC)c1 [Rubone, 2′-Hydroxy-2,4,4′,5,6′-pentamethoxychalcone]
function as miR-34a activator, re-assayed in triplicate with miR-34a reporter system (miR-34a [1]): functions as the miR-34a activators are confirmed | IC50 (miR-34a [1]; Homo sapiens, Huh-7, 48 h): 3.8 µM | luciferase activities of miR-34a reporter (miR-34a [1]; indicated concentrations, 48 h): inhibited the luciferase activities in a dose-dependent manner | expression of other p53 regulated miRNAs (miR-34c, miR-145, miR-192, miR-215) [2]: did not change | expressions of miR-7a, miR-21, miR-23a, miR-29c, miR-34c and miR-219 [2]: not affected | mRNA and protein levels of Cyclin D1 and Bcl-2 (Cyclin D1 and Bcl-2 [3]; HepG2 cells): significantly reduced | mRNA and protein levels of Cyclin D1 and Bcl-2 (Cyclin D1 and Bcl-2 [3]; Huh7 cells): significantly reduced | expression levels of CDK6, FOXP, Notch1 and Sirtuin ([4]; HepG2 cells): decreased | expression levels of CDK6, FOXP, Notch1 and Sirtuin ([4]; Huh7 cells): decreased | cell growth (MTT) (PLC cells; 10 μM): significantly inhibited the growth | effect of miR-34a inhibitors on growth inhibition by Rubone (MTT) (PLC cells; 10 μM Rubone with 2 μM miR-34a inhibitors, 72 h): reversed the growth inhibitory effect | effect of miR-34a mimics on chemosensitivity to Rubone (MTT) (PLC cells; 10 μM Rubone with 2 μM miR-34a mimics, 72 h): enhanced the chemosensitivity | growth rate (MTT) (Hep3B cells): little changes in the growth rate | cell growth (MTT) (HCC cells): inhibited the growth of HCC cells slightly | Tumor growth inhibition (%) (HepG2 xenografted tumor; 20 mg/kg): 78.27% | Tumor weight (g) (HepG2 xenografted tumor; 20 mg/kg): 0.256 (95% CI = 0.08 − 0.42)** g | Tumor growth inhibition (%) (HepG2 xenografted tumor; 50 mg/kg): 89.64% | Tumor weight (g) (HepG2 xenografted tumor; 50 mg/kg): 0.122 (95% CI = 0.067 − 0.18)** # g | tumor growth inhibition compared with Sorafenib (HepG2 xenografted tumor; same dosage of 50 mg/kg, p=0.047 vs. sorafenib treated group): stronger tumor growth inhibition than Sorafenib | pri-miR-34a and miR-34a levels in xenografted tumors (miR-34a [5]): up-regulated | Cyclin D1 and Bcl-2 expression in xenografted tumors (Cyclin D1 and Bcl-2 [6]): down-regulated | tube score mean (microvessels, CD31 staining) (HepG2 xenografted tumors): 12.50
